Source: PubChem BioAssay (NCI)
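48-hour exposure; five concentrations; linearly interpolated endpoints. Abbreviation: GI50, concentration required for 50% inhibition of growth. The concentration for full growth arrest is given as TGI.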

How the values were obtained:
Experiment in all cases: DTP human tumour cell line panel, 48 h; in the data active = GI50 below about 0.43 µM; inactive = the rest
786-0 renal = system: 786-0 renal
A498 renal = system: A498 renal
A549 NSCLC = system: A549 NSCLC
ACHN renal = system: ACHN renal
BT-549 breast = system: BT-549 breast
CAKI-1 renal = system: CAKI-1 renal
CCRF-CEM leukemia = system: CCRF-CEM leukemia
COLO 205 colon = system: COLO 205 colon
DU-145 prostate = system: DU-145 prostate
EKVX NSCLC = system: EKVX NSCLC
HCC-2998 colon = system: HCC-2998 colon
HCT-116 colon = system: HCT-116 colon
HCT-15 colon = system: HCT-15 colon
HL-60(TB) leukemia = system: HL-60(TB) leukemia
HOP-62 NSCLC = system: HOP-62 NSCLC
HOP-92 NSCLC = system: HOP-92 NSCLC
HS 578T breast = system: HS 578T breast
HT29 colon = system: HT29 colon
IGROV1 ovarian = system: IGROV1 ovarian
K-562 leukemia = system: K-562 leukemia
KM12 colon = system: KM12 colon
LOX IMVI melanoma = system: LOX IMVI melanoma
M14 melanoma = system: M14 melanoma
MALME-3M melanoma = system: MALME-3M melanoma
MCF7 breast = system: MCF7 breast
MDA-MB-231 breast = system: MDA-MB-231 breast
MOLT-4 leukemia = system: MOLT-4 leukemia
NCI-H226 lung = system: NCI-H226 lung
NCI-H23 lung = system: NCI-H23 lung
NCI-H460 lung = system: NCI-H460 lung
NCI-H522 lung = system: NCI-H522 lung
NCI/ADR-RES ovarian = system: NCI/ADR-RES ovarian
OVCAR-3 ovarian = system: OVCAR-3 ovarian
OVCAR-4 ovarian = system: OVCAR-4 ovarian
OVCAR-5 ovarian = system: OVCAR-5 ovarian
OVCAR-8 ovarian = system: OVCAR-8 ovarian
PC-3 prostate = system: PC-3 prostate
RPMI-8226 leukemia = system: RPMI-8226 leukemia
RXF 393 renal = system: RXF 393 renal
SF-268 CNS = system: SF-268 CNS
SF-295 CNS = system: SF-295 CNS
SF-539 CNS = system: SF-539 CNS
SK-MEL-2 melanoma = system: SK-MEL-2 melanoma
SK-MEL-28 melanoma = system: SK-MEL-28 melanoma
SK-MEL-5 melanoma = system: SK-MEL-5 melanoma
SK-OV-3 ovarian = system: SK-OV-3 ovarian
SN12C renal = system: SN12C renal
SNB-19 CNS = system: SNB-19 CNS
SNB-75 CNS = system: SNB-75 CNS
SR leukemia = system: SR leukemia
SW-620 colon = system: SW-620 colon
T-47D breast = system: T-47D breast
TK-10 renal = system: TK-10 renal
U251 CNS = system: U251 CNS
UACC-257 melanoma = system: UACC-257 melanoma
UACC-62 melanoma = system: UACC-62 melanoma
UO-31 renal = system: UO-31 renal

CCOc1cc(/C=N\NC(=O)N/N=C/c2ccc(O)c(OCC)c2)ccc1O
18 µM: TGI (SK-MEL-5 melanoma)
> 39.2 µM: TGI (HL-60(TB) leukemia)
1.49 µM: TGI (NCI-H522 lung)
> 53 µM: TGI (RPMI-8226 leukemia)
1.08 µM: TGI (OVCAR-3 ovarian)
> 76.8 µM: TGI (MOLT-4 leukemia)
> 39.1 µM: TGI (SR leukemia)
inactive: GI50 (786-0 renal) 7.68 µM | GI50 (A498 renal) 5.68 µM | GI50 (A549 NSCLC) 6.95 µM | GI50 (ACHN renal) 7.99 µM | GI50 (BT-549 breast) 24.5 µM | GI50 (CAKI-1 renal) 3.06 µM | GI50 (CCRF-CEM leukemia) 2.51 µM | GI50 (COLO 205 colon) 3.85 µM | GI50 (DU-145 prostate) 2.21 µM | GI50 (EKVX NSCLC) 4.38 µM | GI50 (HCC-2998 colon) 2.97 µM | GI50 (HCT-116 colon) 0.866 µM | GI50 (HCT-15 colon) 3.1 µM | GI50 (HL-60(TB) leukemia) 2.5 µM | GI50 (HOP-92 NSCLC) 87.5 µM | GI50 (HS 578T breast) 1.16 µM | GI50 (HT29 colon) 3.38 µM | GI50 (IGROV1 ovarian) 4.71 µM | GI50 (K-562 leukemia) 0.441 µM | GI50 (KM12 colon) 1.01 µM | GI50 (LOX IMVI melanoma) 2.45 µM | GI50 (M14 melanoma) 1.63 µM | GI50 (MALME-3M melanoma) 0.973 µM | GI50 (MCF7 breast) 0.815 µM | GI50 (MDA-MB-231 breast) 6.45 µM | GI50 (MOLT-4 leukemia) 3.41 µM | GI50 (NCI-H226 lung) > 100 µM | GI50 (NCI-H23 lung) 4.22 µM | GI50 (NCI-H460 lung) 2.88 µM | GI50 (NCI/ADR-RES ovarian) 3.47 µM | GI50 (OVCAR-4 ovarian) 54.3 µM | GI50 (OVCAR-5 ovarian) 59.3 µM | GI50 (OVCAR-8 ovarian) 4.26 µM | GI50 (PC-3 prostate) 3.51 µM | GI50 (RPMI-8226 leukemia) 4.79 µM | GI50 (RXF 393 renal) 1.76 µM | GI50 (SF-268 CNS) 5.69 µM | GI50 (SF-295 CNS) 2.25 µM | GI50 (SF-539 CNS) 1.42 µM | GI50 (SK-MEL-2 melanoma) 1.55 µM | GI50 (SK-MEL-28 melanoma) 10.3 µM | GI50 (SK-MEL-5 melanoma) 1.05 µM | GI50 (SK-OV-3 ovarian) 1.25 µM | GI50 (SN12C renal) 7 µM | GI50 (SNB-19 CNS) 4 µM | GI50 (SNB-75 CNS) 2.76 µM | GI50 (SW-620 colon) 0.959 µM | GI50 (T-47D breast) 6.49 µM | GI50 (TK-10 renal) > 29.1 µM | GI50 (U251 CNS) 1.75 µM | GI50 (UACC-257 melanoma) 72.1 µM | GI50 (UACC-62 melanoma) 1.79 µM | GI50 (UO-31 renal) 8.47 µM
> 100 µM: TGI (786-0 renal) | TGI (A549 NSCLC) | TGI (ACHN renal) | TGI (BT-549 breast) | TGI (CAKI-1 renal) | TGI (CCRF-CEM leukemia) | TGI (DU-145 prostate) | TGI (EKVX NSCLC) | TGI (HCC-2998 colon) | TGI (HCT-116 colon) | TGI (HCT-15 colon) | TGI (HOP-62 NSCLC) | TGI (HOP-92 NSCLC) | TGI (HS 578T breast) | TGI (HT29 colon) | TGI (IGROV1 ovarian) | TGI (K-562 leukemia) | TGI (KM12 colon) | TGI (LOX IMVI melanoma) | TGI (M14 melanoma) | TGI (MALME-3M melanoma) | TGI (MCF7 breast) | TGI (MDA-MB-231 breast) | TGI (NCI-H226 lung) | TGI (NCI-H23 lung) | TGI (NCI/ADR-RES ovarian) | TGI (OVCAR-4 ovarian) | TGI (OVCAR-5 ovarian) | TGI (OVCAR-8 ovarian) | TGI (PC-3 prostate) | TGI (SF-268 CNS) | TGI (SF-295 CNS) | TGI (SF-539 CNS) | TGI (SK-MEL-2 melanoma) | TGI (SK-MEL-28 melanoma) | TGI (SK-OV-3 ovarian) | TGI (SN12C renal) | TGI (SNB-19 CNS) | TGI (SNB-75 CNS) | TGI (SW-620 colon) | TGI (T-47D breast) | TGI (TK-10 renal) | TGI (U251 CNS) | TGI (UACC-257 melanoma) | TGI (UACC-62 melanoma) | TGI (UO-31 renal)
active: GI50 (NCI-H522 lung) 0.281 µM | GI50 (OVCAR-3 ovarian) 0.308 µM | GI50 (SR leukemia) 0.354 µM
7.19 µM: TGI (RXF 393 renal)
26.6 µM: TGI (COLO 205 colon)
> 67.7 µM: TGI (NCI-H460 lung)
61.3 µM: TGI (A498 renal)
